Results taken from patent EP1925625A2, “Method for screening modulators of mitochondrial functionning and new modulators obtained” (Theraptosis S.A., priority 2002, dated 2008).

What was measured:
[1] = test system: purified mouse liver mitochondria; assay: Flow cytometric analysis of mitochondrial transmembrane potential (JC-1) on isolated mitochondria; conditions: for changes of JC-1 fluorescence (ΔΨm): real-time, 20 µM mClCCP, 30 µM Ca2+ or alamethicin
Experimental: (§1) Liver mitochondria were isolated from 3-4 weeks old Balb-c mice (IFFA CREDO, Saint Germain sur l'Arbresle, France). Animals were fasted overnight before being killed by […] dislocation. Liver mitochondria were prepared as described (Jacotot, 2000). All steps were carried out at 4°C. Finally, the organelles were resuspended in 'swelling buffer', composed by 200 mM sucrose, 5 mM succinate, 10 mM Tris-MOPS (pH 7.4), 1 mM H3PO4, 2 µM Rotenone, and 10 µM EGTA at pH=7.4. Spectrophotometric and flow cytometric analyses were performed in this buffer. The protein content of isolated mitochondria was determined by the Bradford assay.
Mitochondrial transmembrane potential (ΔΨm) was assessed by 5,5',6,6',-tetracholoro-1,1,3,3'-tetraethylbenzimidazolyl carbocyanine iodide (JC-1, Molecular Probes) incorporation. This potential-sensitive cationic dye accumulates in the mitochondrial matrix according to the Nernst equation (Reers et al., 1991). JC-1 green fluorescence, associated with JC-1 monomers was collected in the FL-1 channel. JC-1 orange fluorescence, associated with the formation of J-aggregates was collected in the FL-2 channel (585 +/- 21 nm) (Reers et al, 1991). Both fluorescences were recorded in logarithmic amplifier mode, using the PMT at a voltage adjusted to 907 and 622 respectively. Spectral overlap was avoided by adjusting compensation network as follows: FL1 - 18.5% FL2 and FL2 - 25.4% FL1. The JC-1 orange green fluorescence ratio was calculated with the FCS Assistant software.
Fixed-time detection of ΔΨM was performed on mitochondrial samples containing 10 µg proteins in 100 µl of swelling buffer. Samples were submitted to MPT-inducing drugs for 15 min at 25°C, and JC-1 was added at 800 nM for 15 min at 37°C in the dark. Samples were immediately analyzed by flow cytometry, and data from 20.000 mitochondria (gated on FSC-SSC parameters) were recorded. This assay permitted to quantify the percentage of highly energized mitochondria (with both orange and green fluorescence) and depolarized mitochondria (with green fluorescence only) as depicted in part C2 of Fig.1.
Real-time monitoring of ΔΨm was performed on mitochondrial samples containing 1.5 µg proteins in 400 µl of swelling buffer. JC-1 loading was performed at 400 nM in for 15 minutes at 37°C. […] Then drugs were added to the sample, and ΔΨm variations were recorded for the following 16 minutes. Depolarization curves were drawn as previously indicated for swelling curves; the time scale was divided into discrete periods of 1 minute and the mean of JC-1 orange and JC-1 green fluorescence of the corresponding mitochondrial subsets was calculated by the CellQuest Pro software and exported into the Microsoft Excel software.

[2] = test system: purified mouse liver mitochondria; assay: Flow cytometric (real-time FCM) analysis of mitochondrial morphology (FSC/SSC) on isolated mitochondria; conditions: for changes of mitochondrial size (FSC) and structure (SSC): 1-30 µM Calcium, 20 µM CCCP or alamethicin added to isolated mitochondria; for effect on alamethicin induced MMP: pre-treatment with inhibitor, then alamethicin (5 µg/ml)
Experimental: as §1
Fluorescence-activated flow cytometry was performed using a 3-color FACSCalibur cytometer equipped with a 15 mW air-cooled 488 nm argon laser (Becton Dickinson, San Jose, CA). Mitochondria analyses were performed after appropriate settings of the Forward angle light scatter (FSC) - Side angle light scatter (SSC) detectors (see Fig. 1). Discrimination between mitochondria and cellular debris and noise background was performed by an appropriate gating on FSC-SSC scatter plots (Fig. 1)(Radcliff G, Jaroszeski MJ 1998 Methods Mol Biol 91:1-24 Basics of flow cytometry). Systematic confirmation of the validity of this gating was obtained by a labeling of mitochondria with the ΔΨm-insensitive mitochondrial dye MitoTracker® Green (MTG, Molecular Probes, Eugene, OR) (Jacotot et al., 2001). Briefly mitochondria (1.5 µg proteins) were respuspended in 400 µl swelling buffer containing 200 nM MTG for 15 min at room temperature. The organelles were immediately analyzed on the cytometer with the CellQuest Pro software (Becton Dickinson). MTG fluorescence was collected in the FL-1 channel (530 +/- 15 nm) and analyzed in logarithmic amplifier mode, using the PMT at a voltage adjusted to 907. Data from 20,000 gated mitochondria were recorded and analyzed.
Mitochondrial size was analyzed through the light scattered by the organelles at low angle using the Forward scatter (FSC) photodiode. Signals were collected using the E-00 setting, with a logarithmic amplification gain of 5.41. Mitochondrial structure was evaluated by the light scattered in the perpendicular direction. It was assessed by the sensitive Side scatter (SSC) photomultiplier tube (PMT), using a voltage of 581, and a linear amplification gain adjusted to 4.27. The morphological changes related to swelling of purified mitochondria were monitored by the increase in mitochondrial size (FSC) and the decrease in the organelle structure (SSC) using the CellQuest Pro software. The FSC/SSC ratio was calculated by the FCS Assistant software and permitted to integrate both variations in size and structure into only one parameter.
Fixed-time analyses were performed on mitochondrial samples containing 10 µg proteins in 100 µl of swelling buffer. Samples were submitted to MPP-inducing reagents for 30 min at 25°C. Samples were immediately analyzed by flow cytometry, and data from 20.000 mitochondria were recorded. The percentage of specific swelling determined on forward scatter was calculated as follows; (FSCCa2+ - FSCReagent ) x 100 / (FSCCa2+ - FSCCo), were FSCCa2+, FSCReagent and FSCCo correspond to the FSC values obtained for CaCl2- treated, reagent - treated and untreated mitochondria respectively. Similar calculation was used to determine the percentage of specific swelling on SSC and FSC/SSC ratio values.
Real-time experiments were performed on mitochondrial samples containing 1.5 µg proteins in 800 µl (= 2 ng / […]l) of swelling buffer. Samples were acquired on the flow cytometer for 5 minutes to record basal morphological criteria. Then reagents were added to samples, and variations in light scattering were recorded for the following 15 minutes. The sample flow rate was settled to 12 µl +/- 3 µl / min for both fixed- and real-time analyses. […]

[3] = 50 µM BA or 10 µM CsA 5 minutes, then 30 min Ca2+ (30 µM)

Molecule	changes of JC-1 fluorescence (ΔΨm) [1]	changes of mitochondrial size (FSC) and structure (SSC) [2]	effect on alamethicin induced MMP [2]	effect on Ca2+ induced ΔΨm loss [1, 3]	effect on Ca2+ induced SSC decrease [2, 3]
N#CC(C#N)=NNc1cccc(Cl)c1 [CCCP, carbonyl cyanide meta-chlorophenylhydrazone]	rapid decrease in JC-1 orange fluorescence and a slow decrease in monomeric JC-1 green fluorescence	low but significant granularity (SSC) decrease without detectable size (FSC) changes			
[Ca+2].[Cl-].[Cl-] [Calcium, CaCl2]	a decrease in JC-1 orange fluorescence and a significant increase in JC-1 green fluorescence	dose-dependent SSC decrease and FSC increase			
N.N.N.N.N.N.N.N.N.N.N.N.N.N.[Cl-].[Cl-].[Cl-].[Cl-].[Cl-].[Cl-].[O-2].[O-2].[Ru+3].[Ru+3].[Ru+4] [Ruthenium red]			not affected		
CO[C@H](C/C=C\C=C\CC/C=C/C[C@H](C)/C=C/C(=C\C(=O)O)CC(=O)O)/C(C)=C\C=C(/C)C(=O)O [bongkrekic acid]			not affected	strongly reduces	partly affect
alamethicin	a decrease in JC-1 orange fluorescence and a significant increase in JC-1 green fluorescence	simultaneous FSC increase and SSC decrease			
